# Patent US5977373A, “Thiadiazolyl and oxadiazolyl phenyl oxazolidinone antibacterial agents” (Pharmacia & Upjohn Company, priority 1998, dated 1999)
# Columns and labels:
# [1] = tested on: S. Aureus UC ® 9213; assay: In vitro minimum inhibitory concentration (MIC) by agar dilution, gram-positive bacteria (Table 1); assay type: cell-based; settings: Staphylococcus aureus, UC9213
# Excerpt: (§1) The oxazolidinone antibacterial agents of this invention have useful activity against a variety of microorganisms. The in vitro activity of compounds of this invention can be assessed by standard testing procedures such as the determination of minimum inhibitory concentration (MIC) by agar dilution as described in "Methods for Dilution Antimicrobial Susceptibility Tests for Bacteria That Grow Aerobically" (MFT) published January 1983 by the National Committee for Clinical Laboratory Standards, 771 East Lancaster Avenue, Villanova, Pa. 19084, USA. The activity of selected compounds of this invention against Staphylococcus aureus and Streptococcus pneumoniae are shown in Table 1.
# [2] = tested on: S. pneumoniae UC ® 9912; assay: as above; assay type: cell-based; settings: Streptococcus pneumoniae, UC9912
# Excerpt: as §1
MIC [1],MIC [2],Structure (SMILES)
0.5 µg/mL,0.25 µg/mL,"CC(=O)NC[C@H]1CN(c2ccc(-c3nnc(C(N)=O)s3)c(F)c2)C(=O)O1 [Example 2, (S)-5-[4-[5-[(Acetylamino)methyl]-2-oxo-3-oxazolidinyl]-2-fluorophenyl]-1,3,4-thiadiazole-2-carboxamide]"
1 µg/mL,0.25 µg/mL,"CCCc1nnc(-c2ccc(N3C[C@H](CNC(C)=O)OC3=O)cc2F)s1 [Example 5, (S)-N-[[3-[3-Fluoro-4-(5-propyl-1,3,4-thiadiazol-2-yl)phenyl]-2-oxo-5-oxazolidinyl]methyl]acetamide]"
2 µg/mL,0.25 µg/mL,"COCc1nnc(-c2ccc(N3C[C@H](CNC(C)=O)OC3=O)cc2F)s1 [Example 12, (S)-N-[[3-[3-Fluoro-4-[5-(methoxymethyl)-1,3,4-thiadiazol-2-yl]phenyl]-2-oxo-5-oxazolidinyl]methyl]acetamide]"
2 µg/mL,0.5 µg/mL,"CC(=O)NC[C@H]1CN(c2ccc(-c3nnc(C(F)(F)F)s3)c(F)c2)C(=O)O1 [Example 15, (S)-N-[[3-[3-Fluoro-4-[5-(trifluoromethyl)-1,3,4-thiadiazol-2-yl]phenyl]-2-oxo-5-oxazolidinyl]methyl]acetamide]"
2 µg/mL,0.25 µg/mL,"CC(=O)NC[C@H]1CN(c2ccc(-c3nnc(CCC(C)O)s3)c(F)c2)C(=O)O1 (stereo partly drawn) [Example 17, (5S)-N-[[3-[3-Fluoro-4-[5-(3-hydroxybutyl)-1,3,4-thiadiazol-2-yl]phenyl]-2-oxo-5-oxazolidinyl]methyl]acetamide]"
2 µg/mL,0.25 µg/mL,"COC(=O)CCc1nnc(-c2ccc(N3C[C@H](CNC(C)=O)OC3=O)cc2F)s1 [Example 18, (S)-Methyl 5-[4-[5-[(acetylamino)methyl]-2-oxo-3-oxazolidinyl]-2-fluorophenyl]-1,3,4-thiadiazole-2-propanoate]"
8 µg/mL,< 0.125 µg/mL,"CC(=O)NC[C@H]1CN(c2ccc(-c3nnc(CCC(N)=O)s3)c(F)c2)C(=O)O1 [Example 19, (S)-5-[4-[5-[(Acetylamino)methyl]-2-oxo-3-oxazolidinyl]-2-fluorophenyl]-1,3,4-thiadiazole-2-propanamide]"
1 µg/mL,0.25 µg/mL,"CSCc1nnc(-c2ccc(N3C[C@H](CNC(C)=O)OC3=O)cc2F)s1 [Example 21, (S)-N-[[3-[3-Fluoro-4-[5-[(methylthio)methyl]-1,3,4-thiadiazol-2-yl]phenyl]-2-oxo-5-oxazolidinyl]methyl]acetamide]"
8 µg/mL,0.25 µg/mL,"CC(=O)NC[C@H]1CN(c2ccc(-c3nnc(C[S+](C)[O-])s3)c(F)c2)C(=O)O1 (stereo partly drawn) [Example 22, (S)-N-[[3-[3-Fluoro-4-[5-[(methylsulfinyl)methyl]-1,3,4-thiadiazol-2-yl]phenyl]-2-oxo-5-oxazolidinyl]methyl]acetamide]"
1 µg/mL,0.25 µg/mL,"CSCCc1nnc(-c2ccc(N3C[C@H](CNC(C)=O)OC3=O)cc2F)s1 [Example 23, (S)-N-[[3-[3-Fluoro-4-[5-[2-(methylthio)ethyl]-1,3,4-thiadiazol-2-yl]phenyl]-2-oxo-5-oxazolidinyl]methyl]acetamide]"
2 µg/mL,0.25 µg/mL,"CCOC(=O)Cc1nnc(-c2ccc(N3C[C@H](CNC(C)=O)OC3=O)cc2F)s1 [Example 25, (S)-Ethyl 5-[4-[5-[(acetylamino)methyl]-2-oxo-3-oxazolidinyl]-2-fluorophenyl]-1,3,4-thiadiazole-2-acetate]"
8 µg/mL,< 0.125 µg/mL,"CCOC(=O)c1nnc(-c2ccc(N3C[C@H](CNC(C)=O)OC3=O)cc2F)s1 [Example 27, (S)-Ethyl 5-[4-[5-[(acetylamino)methyl]-2-oxo-3-oxazolidinyl]-2-fluorophenyl]-1,3,4-thiadiazole-2-carboxylate]"
2 µg/mL,0.25 µg/mL,"CC(=O)NC[C@H]1CN(c2ccc(-c3nnc(CC(C)O)s3)c(F)c2)C(=O)O1 (stereo partly drawn) [Example 28, (5S)-N-[[3-[3-Fluoro-4-[5-(2-hydroxypropyl)-1,3,4-thiadiazol-2-yl]phenyl]-2-oxo-5-oxazolidinyl]methyl]acetamide]"
4 µg/mL,0.25 µg/mL,"CC(=O)NC[C@H]1CN(c2ccc(-c3nnc(N)s3)c(F)c2)C(=O)O1 [Example 30, (S)-N-[[3-[4-(5-Amino-1,3,4-thiadiazol-2-yl)-3-fluorophenyl]-2-oxo-5-oxazolidinyl]methyl]acetamide]"
16 µg/mL,2 µg/mL,"CC(=O)NC[C@H]1CN(c2ccc(-c3nsc(C(N)=O)n3)c(F)c2)C(=O)O1 [Example 33, (S)-3-[4-[5-[(Acetylamino)methyl]-2-oxo-3-oxazolidinyl]-2-fluorophenyl]-1,2,4-thiadiazole-5-carboxamide]"
1 µg/mL,0.25 µg/mL,"CC(=O)NC[C@H]1CN(c2ccc(-c3ncns3)c(F)c2)C(=O)O1 [Example 34, (S)-N-[[3-[3-Fluoro-4-(1,2,4-thiadiazol-5-yl)phenyl]-2-oxo-5-oxazolidinyl]methyl]acetamide]"

MIC [1],MIC [2],Structure (SMILES)
16 µg/mL,4 µg/mL,"CC(=O)NC[C@H]1CN(c2ccc(-c3noc(C)n3)c(F)c2)C(=O)O1 [Example 35, (S)-N-[[3-[3-Fluoro-4-(5-methyl-1,2,4-oxadiazol-3-yl)phenyl]-2-oxo-5-oxazolidinyl]methyl]acetamide]"
4 µg/mL,1 µg/mL,"CC(=O)NC[C@H]1CN(c2ccc(-c3ncon3)c(F)c2)C(=O)O1 [Example 36, (S)-N-[[3-[3-Fluoro-4-(1,2,4-oxadiazol-3-yl)phenyl]-2-oxo-5-oxazolidinyl]methyl]acetamide]"
> 16 µg/mL,1 µg/mL,"CC(=O)NC[C@H]1CN(c2ccc(-c3noc(C(N)=O)n3)c(F)c2)C(=O)O1 [Example 37, (S)-3-[4-[5-[(Acetylamino)methyl]-2-oxo-3-oxazolidinyl]-2-fluorophenyl]-1,2,4-oxadiazole-5-carboxamide]"
> 16 µg/mL,2 µg/mL,"CC(=O)NC[C@H]1CN(c2ccc(-c3noc(C#N)n3)c(F)c2)C(=O)O1 [Example 38, (S)-N-[[3-[4-(5-Cyano-1,2,4-oxadiazol-3-yl)-3-fluorophenyl]-2-oxo-5-oxazolidinyl]methyl]acetamide]"
16 µg/mL,8 µg/mL,"CC(=O)NC[C@H]1CN(c2ccc(-c3noc(C(F)(F)F)n3)c(F)c2)C(=O)O1 [Example 39, (S)-N-[[3-[3-Fluoro-4-[5-(trifluoromethyl)-1,2,4-oxadiazol-3-yl]phenyl]-2-oxo-5-oxazolidinyl]methyl]acetamide]"
2 µg/mL,0.5 µg/mL,"CC(=O)NC[C@H]1CN(c2ccc(-c3ncno3)c(F)c2)C(=O)O1 [Example 40, (S)-N-[[3-[3-Fluoro-4-(1,2,4-oxadiazol-5-yl)phenyl]-2-oxo-5-oxazolidinyl]methyl]acetamide]"
4 µg/mL,0.5 µg/mL,"CC(=O)NC[C@H]1CN(c2ccc(-c3nnc(NC=O)s3)c(F)c2)C(=O)O1 [Example 41, (S)-N-[[3-[3-Fluoro-4-[5-(formylamino)-1,3,4-thiadiazol-2-yl]phenyl]-2-oxo-5-oxazolidinyl]methyl]acetamide]"
1 µg/mL,< 0.125 µg/mL,"CC(=O)NC[C@H]1CN(c2ccc(-c3nnc(CCCl)s3)c(F)c2)C(=O)O1 [Example 42, (S)-N-[[3-[4-[5-(2-Chloroethyl)-1,3,4-thiadiazol-2-yl]-3-fluorophenyl]-2-oxo-5-oxazolidinyl]methyl]acetamide]"
2 µg/mL,0.5 µg/mL,"C/C=C/c1nnc(-c2ccc(N3C[C@H](CNC(C)=O)OC3=O)cc2F)s1 [Example 43, (S)-N-[[3-[3-Fluoro-4-[5-(1-propenyl)-1,3,4-thiadiazol-2-yl]phenyl]-2-oxo-5-oxazolidinyl]methyl]acetamide]"
> 16 µg/mL,0.25 µg/mL,"CC(=O)NC[C@H]1CN(c2ccc(-c3nnc(CCN)s3)c(F)c2)C(=O)O1 [Example 44, (S)-N-[[3-[4-[5-(2-Aminoethyl)-1,3,4-thiadiazol-2-yl]-3-fluorophenyl]-2-oxo-5-oxazolidinyl]methyl]acetamide]"
16 µg/mL,0.5 µg/mL,"CC(=O)NCCc1nnc(-c2ccc(N3C[C@H](CNC(C)=O)OC3=O)cc2F)s1 [Example 45, (S)-N-[[3-[4-[5-[2-(Acetylamino)ethyl]-1,3,4-thiadiazol-2-yl]-3-fluorophenyl]-2-oxo-5-oxazolidinyl]methyl]acetamide]"
16 µg/mL,0.5 µg/mL,"CC(=O)NC[C@H]1CN(c2ccc(-c3nnc(CCNS(C)(=O)=O)s3)c(F)c2)C(=O)O1 [Example 46, (S)-N-[[3-[3-Fluoro-4-[5-[2-[(methylsulfonyl)amino]ethyl]-1,3,4-thiadiazol-2-yl]phenyl]-2-oxo-5-oxazolidinyl]methyl]acetamide]"
1 µg/mL,0.25 µg/mL,"CC(=O)NC[C@H]1CN(c2ccc(-c3nnc(C(C)C)s3)c(F)c2)C(=O)O1 [Example 48, (S)-N-[[3-[3-Fluoro-4-[5-(1-methylethyl)-1,3,4-thiadiazol-2-yl]phenyl]-2-oxo-5-oxazolidinyl]methyl]acetamide]"
16 µg/mL,0.25 µg/mL,"CC(=O)NCc1nnc(-c2ccc(N3C[C@H](CNC(C)=O)OC3=O)cc2F)s1 [Example 49, (S)-N-[[5-[4-[5-[(Acetylamino)methyl]-2-oxo-3-oxazolidinyl]-2-fluorophenyl]-1,3,4-thiadiazol-2-yl]methyl]acetamide]"
16 µg/mL,0.5 µg/mL,"CC(=O)NC[C@H]1CN(c2ccc(-c3nnc(CCCN)s3)c(F)c2)C(=O)O1 [Example 57, (S)-N-[[3-[4-[5-(3-Aminopropyl)-1,3,4-thiadiazol-2-yl]-3-fluorophenyl]-2-oxo-5-oxazolidinyl]methyl]acetamide]"
